Source: patent publication US20050208582A1, “Pyrazole compounds and pharmaceutical compositions comprising the compound” (priority 2002, published 2005)

Each compound was assayed against T1, ERK2 (Homo sapiens, UniProt P28482) (assay: Measurement of ERK2 inhibition (ELISA, myelin basic protein substrate)). Details: concentration at which ERK2 enzyme activity was inhibited to 50%; room temperature, 30 minutes; read-out: ERK2 inhibitory activity.
T1 construct: purchased Upstate Biotech
T1 sequence (P28482 whole entry, species assumed): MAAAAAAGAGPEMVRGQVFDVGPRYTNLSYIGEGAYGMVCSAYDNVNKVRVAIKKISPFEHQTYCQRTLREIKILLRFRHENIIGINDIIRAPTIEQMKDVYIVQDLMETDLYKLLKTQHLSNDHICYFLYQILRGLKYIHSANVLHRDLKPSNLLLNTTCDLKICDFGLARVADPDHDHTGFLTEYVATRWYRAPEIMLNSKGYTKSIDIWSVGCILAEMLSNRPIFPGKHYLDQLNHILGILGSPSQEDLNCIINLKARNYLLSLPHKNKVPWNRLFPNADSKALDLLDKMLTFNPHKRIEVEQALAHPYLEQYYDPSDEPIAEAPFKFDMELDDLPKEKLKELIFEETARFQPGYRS
Type: biochemical
Protocol: Measurement of ERK2 Inhibition
A plate for ELISA was coated for 1 hour with 1 μg/well myelin basic protein (available from Upstate Biotech) serving as a reaction substrate. Following washing operation with PBS-Tween, blocking with 1% BSA-PBS was conducted for 3 hours. After washing with PBS-Tween, 25 μl of a reaction solution (20 mM MOPS, 25 mM β-glycerphosphoric acid, 5 mM EGTA, 1 mM orthovanadic acid, 1 mM dithiothreitol), 5 μl of a dilution sample of compound from dilution series which was prepared using 1% DMSO-1% BSA solution, 10 μl of 0.5 μg/ml ERK2 (available from Upstate Bioech), 10 μl of 500 μM ATP were added to made up to 50 μl, and allowed to react at room temperature for 30 minutes. 100 μl of 200 mM EDTA (pH 8.0) was added to stop the reaction, which was then washed with PBS-Tween. This was then added with mouse anti-phospho-myelin basic protein antibody (available from Usptate Biotech), allowed to react for 1 hour, and washed with PBS-Tween, thereafter added with anti-mouse IgG antibody combined with horseradish peroxidase (available from ICN), allowed to react for 1 hour, and washed with PBS-Tween. Subsequently 100 μl of a TMB peroxidase substrate solution (available from KPL) was added, coloring reaction was allowed for 10 minutes, and then measurement at OD 450 nm was conducted. […]
`O=C(NCc1ccco1)c1cc2c(/C=C/c3cccc(F)c3)n[nH]c2cc1F` [Example 103, 6-Fluoro-3-[(E)-2-(3-fluorophenyl)-vinyl]-1H-indazole-5-carboxylic Acid (furan-2-ylmethyl)-amide] showed an IC50 of 22.1 µM.
`O=C(NCc1ccco1)c1ccc2[nH]nc(/C=C/c3cccc(F)c3)c2c1` [Reference example 1, 3-[(E)-2-(3-fluorophenyl)-vinyl]-1H-indazole-5-carboxylic acid (furan-2-ylmethyl)-amide, reference compound] showed an IC50 of 0.71 µM.

The compounds below were run against T2, Human JNK 3 (Homo sapiens, UniProt P53779) (assay: Measurement of JNK 3 inhibition (GST-JNK3, GST-c-Jun substrate, [γ-33P]ATP, SPA beads)). Details: 50% inhibitory concentration on the enzymatic activity of JNK; 3.33 μM ATP in substrate solution, 30 minutes.
T2 construct: made in house; host or cells: Escherichia coli
T2 sequence (P53779 whole entry): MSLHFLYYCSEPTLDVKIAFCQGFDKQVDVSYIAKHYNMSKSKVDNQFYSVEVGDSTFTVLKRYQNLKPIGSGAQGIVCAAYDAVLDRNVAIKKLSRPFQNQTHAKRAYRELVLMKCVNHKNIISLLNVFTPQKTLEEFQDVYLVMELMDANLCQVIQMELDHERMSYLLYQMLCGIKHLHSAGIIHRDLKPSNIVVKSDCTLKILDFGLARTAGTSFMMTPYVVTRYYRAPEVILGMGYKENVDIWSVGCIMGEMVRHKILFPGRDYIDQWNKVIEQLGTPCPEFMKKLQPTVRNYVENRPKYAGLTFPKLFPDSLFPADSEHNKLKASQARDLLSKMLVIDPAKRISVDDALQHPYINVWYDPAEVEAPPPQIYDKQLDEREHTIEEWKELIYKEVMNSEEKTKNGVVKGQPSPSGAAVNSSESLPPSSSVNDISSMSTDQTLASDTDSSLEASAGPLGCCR
Type: biochemical
Protocol: Measurement of JNK 3 Inhibition
Human JNK 3 was expressed as a fusion protein (GST-JNK 3) with glutathione S-transferase (GST) in Escherichia coli and was purified using glutathione Sepharose 4B beads. The amino acid sequence 1-169 of c-Jun was prepared as a fusion protein (GST-c-Jun) with GST in Escherichia coli, was purified using glutathione Sepharose 4B beads and was used as a substrate. A test compound was solved in 100% dimethyl sulfoxide into 10 mM and was then further diluted with 10% aqueous dimethyl sulfoxide solution to yield a dilution series. In 96-well OPTI plate (available from ParkinElmer Life Sciences), 20 μl of diluted compound, 30 μl of substrate solution (1.2 μg GST-c-Jun, 0.2 μCi [γ-^33P]ATP, 25 mM HEPES pH=7.5, 10 mM MgAcetate, 3.33 μM ATP) and 50 μl of enzyme solution (0.04 μg GST-JNK3, 25 mM HEPES pH=7.5, 10 mM Mg Acetate) were mixed per 1-well, made up to 100 μl, and allowed to react for 30 minutes. After terminating the reaction by adding 100 μl of a reaction terminator (80 mM ATP, 50 mg/ml glutathione SPA beads (available from Amersham Pharmacia Biotech)), the reaction mixture was shaken for 30 minutes. The mixture was centrifuged at room temperature at 1000×g for 5 minutes, and the emission intensity thereof was determined on a TopCount™ illuminator (available from available from PerkinElmer Life Sciences). The activity is expressed by the 50% inhibitory concentration on the enzymatic activity of JNK, i.e., IC50 (nM).
Compound `O=C(NC1CC1)c1ccc2[nH]nc(-c3cccc(F)c3)c2n1` [Example 56, 3-(3-Fluorophenyl)-1H-pyrazolo[4,3-b]pyridine-5-carboxylic Acid Cyclopropylamide] has an IC50 of 234 nM.
In the case of `O=C(NCc1cccnc1)c1cc2c(/C=C/c3cccc(F)c3)n[nH]c2cc1F` [Example 106, 6-Fluoro-3-[(E)-2-(3-fluorophenyl)-vinyl]-1H-indazole-5-carboxylic Acid (pyridine-3-ylmethyl)-amide], the IC50 is reported as 195 nM.
`CC(C)[C@@H](CO)NC(=O)c1cc(F)c2[nH]nc(/C=C/c3cccnc3)c2c1` [Example 128, 7-Fluoro-3-[(E)-2-(pyridin-3-yl)-vinyl]-1H-indazole-5-carboxylic acid [(1S)-1-hydroxymethyl-2-methylpropyl]-amide] showed an IC50 of 117 nM.
Compound `O=C(Nc1cc(F)c2[nH]nc(/C=C/c3cccnc3)c2c1)c1ccco1` [Example 136, Furan-2-carboxylic Acid [7-fluoro-3-(2-pyridin-3-yl-vinyl)-1H-indazol-5-yl]-amide] has an IC50 of 167 nM.
`O=C(NCc1ccco1)c1ccc2[nH]nc(/C=C/c3cccs3)c2c1F` [Example 213, 4-Fluoro-3-[(E)-2-(thiophen-2-yl)-vinyl]-1H-indazole-5-carboxylic Acid (furan-2-ylmethyl)-amide] showed an IC50 of 117 nM.
With `O=C(NC1CC1)c1ccc2[nH]nc(/C=C/c3ccc(F)cc3)c2c1OCCO` [Example 353, 3-[(E)-2-(4-Fluorophenyl)-vinyl]-4-(2-hydroxyethoxy)-1H-indazole-5-carboxylic Acid Cyclopropylamide] the IC50 was 148 nM.
Compound `COc1c(-c2nc(C)n[nH]2)ccc2[nH]nc(/C=C/c3cccc(F)c3)c12` [Example 392, 3-[(E)-2-(3-Fluorophenyl)-vinyl]-4-methoxy-5-(5-methyl-2H-[1,2,4]triazol-3-yl)-1H-indazole] has an IC50 of 403 nM.
`O=C(NCc1ccco1)c1cc2c(/C=C/c3cccc(F)c3)n[nH]c2cn1` [Example 466] gave an IC50 of 578 nM.
With `O=C(NCc1ccco1)c1cnc2[nH]nc(-c3ccc4ccccc4c3)c2c1` [Example 472, 3-(Naphthalen-2-yl)-1H-pyrazolo[3,4-b]pyridine-5-carboxylic Acid (furan-2-ylmethyl)-amide] the IC50 was 505 nM.
Work on `O=C(Nc1ccc2[nH]nc(/C=C/c3ccc(F)cc3)c2n1)c1ccco1` [Example 495, Furan-2-carboxylic Acid {3-[(E)-2-(4-fluorophenyl)-vinyl]-1H-pyrazolo[4,3-b]pyridin-5-yl}-amide] yielded an IC50 of 118 nM.
`O=C(NC(CO)c1ccccc1)c1cc2c(-c3ccc4ccccc4c3)n[nH]c2s1` (centres unmarked) [Example 522, 3-(Naphthalen-2-yl)-1H-thieno[2,3-c]pyrazol-5-carboxylic Acid (2-hydroxy-1-phenylethyl)amide] gave an IC50 of 146 nM.
`CNCc1nnc(-c2cc3c(/C=C/c4ccc(F)cc4)n[nH]c3cc2F)[nH]1` [Example 571, (5-{6-Fluoro-3-[(E)-2-(4-fluorophenyl)-vinyl]-1H-indazol-5-yl}-4H-[1,2,4]triazol-3-ylmethyl)-methyl-amine] gave an IC50 of 63 nM.
With `NCc1nnc(-c2cc(F)c3[nH]nc(/C=C/c4ccc(F)cc4)c3c2)[nH]1` [Example 573, C-(5-{7-Fluoro-3-[(E)-2-(4-fluorophenyl)-vinyl]-1H-indazol-5-yl}-4H-[1,2,4]triazol-3-yl)-methylamine] the IC50 was 66 nM.
Work on `Fc1ccc(/C=C/c2n[nH]c3c(F)cc(-c4ncc[nH]4)cc23)cc1` [Example 603, 7-Fluoro-3-[(E)-2-(4-fluorophenyl)-vinyl]-5-(1H-imidazol-2-yl)-1H-indazole] yielded an IC50 of 117 nM.
For `C[C@H](NC(=O)c1ccc2[nH]nc(/C=C/c3ccc(F)cc3)c2c1OCCCO)C(N)=O` [Example 786, 3-[(E)-2-(4-Fluorophenyl)-vinyl]-4-(3-hydroxypropoxy)-1H-indazole-5-carboxylic Acid [(1S)-1-carbamoyl-ethyl]-amide], the IC50 was 175 nM.
For `NC(=O)CCOc1c(C(=O)N[C@H](CO)c2ccccc2)ccc2[nH]nc(/C=C/c3ccc(F)cc3)c12` [Example 790, 4-(2-Carbamoylethoxy)-3-[(E)-2-(4-fluorophenyl)-vinyl]-1H-indazole-5-carboxylic Acid [(1S)-2-hydroxy-1-phenyl-ethyl]-amide], the IC50 was 70 nM.
Work on `COc1c(C(=O)NCc2ncco2)ccc2[nH]nc(/C=C/c3ccc(F)cc3F)c12` [Example 992, 3-[(E)-2-(2,4-Difluorophenyl)-vinyl]-4-methoxy-1H-indazole-5-carboxylic Acid (oxazol-2-ylmethyl)amide] yielded an IC50 of 107 nM.
Compound `COc1cc(/C=C/c2n[nH]c3cc(F)c(NC(=O)CC4CC4)cc23)ccc1F` [Example 1003, 2-Cyclopropyl-N-{6-fluoro-3-[(E)-2-(4-fluoro-3-methoxyphenyl)-vinyl]-1H-indazol-5-yl}acetamide] has an IC50 of 122 nM.
`CCCNC(=O)Nc1cc2c(/C=C/c3ccc(F)cc3)n[nH]c2cc1F` [Example 1056, 1-{6-Fluoro-3-[(E)-2-(4-fluorophenyl)-vinyl]-1H-indazol-5-yl}-3-propyl-urea] was tested, and the IC50 was 132 nM.

Same assay, conditions: selectivity table, compared with ERK2; read-out: JNK3 inhibitory activity
Work on `O=C(NCc1ccco1)c1cc2c(/C=C/c3cccc(F)c3)n[nH]c2cc1F` [Example 103, 6-Fluoro-3-[(E)-2-(3-fluorophenyl)-vinyl]-1H-indazole-5-carboxylic Acid (furan-2-ylmethyl)-amide] yielded an IC50 of 55 nM.
`O=C(NCc1ccco1)c1ccc2[nH]nc(/C=C/c3cccc(F)c3)c2c1` [Reference example 1, 3-[(E)-2-(3-fluorophenyl)-vinyl]-1H-indazole-5-carboxylic acid (furan-2-ylmethyl)-amide, reference compound] was tested, and the IC50 was 92 nM.
